How the values were obtained:
[1] = tested on: cortical neurons; test: Membrane hyperpolarization associated with neuroprotection; type: cell-based, mouse
[2] = tested on: cortical neurons; test: Oxygen glucose deprivation (OGD) model, neuronal death assessed by Hoechst staining; type: cell-based, mouse; conditions: glibenclamide 10 μM applied 30 min before MLC901 1 μg/mL
Method: Time-pregnant (E14) C57B16/J mice were anesthetized with isopentane followed by cervical dislocation as previously described (Heurteaux et al., 2010). Fetuses were removed and placed in cold HBSS^+ solution. Cerebral cortices were dissected in cold HBSS^+ solution and the meninges were removed. Cortical samples were cut in small pieces and were gently triturated with a fire-polished glass Pasteur pipette in 8 ml HBSS^+ solution. The mix was filtered (40 μm filter) and centrifuged at 800 rpm for 8 min. The supernatant was removed and the pellet was dissolved in 2 ml culture medium. Cells were plated on poly-D-lysine (Sigma-Aldrich Chimie, St Quentin Fallavier, France)-coated 12 well (24 mm diameter) plates with glass coverslips (12 mm diameter) (CML, Nemours, France) at a density of 1×10^6 cells/well. Cultures were maintained at 37° C. in a humidified 95% air/5% CO2 atmosphere incubator in Neurobasal supplemented with B27, Glutamax, 100 units/ml penicillin, and 100 µg/ml streptomycin and used for experiments up to 12 days. Glial growth was suppressed by addition of 5-Fluoro-2-deoxyuridine (2 μM) and Uridine (2 μM) during the second day of culture.
OGD experiments were performed on primary mouse cortical neurons seeded at a density of 1,000,000 cells/35-mm dish after 4 days of culture (Goldberg and Choi, 1993). […]

[3] = molecular target: KATP channel (Kir 6.2 and SUR 1) (Homo sapiens, UniProt Q09428+Q14654); test: Two-electrode voltage clamp of KATP channels expressed in Xenopus oocytes, preactivated by sodium azide; type: cell-based; conditions: sodium azide 3 mM; test substance 10 μM
[4] = molecular target: T1, KATP channels in INS-R9 insulinoma cells (Rattus norvegicus, UniProt P70673+Q09429); test: Whole cell patch clamp recording of endogenous KATP currents in INS-R9 cells; type: cell-based; conditions: 10 μM pinacidil applied with MLC901 1 μg/mL
T1 construct: Insulinoma cells naturally have KATP channels; endogenous in cells; host or cells: rat INS-R9 insulinoma cells
T1 sequence (P70673 whole entry): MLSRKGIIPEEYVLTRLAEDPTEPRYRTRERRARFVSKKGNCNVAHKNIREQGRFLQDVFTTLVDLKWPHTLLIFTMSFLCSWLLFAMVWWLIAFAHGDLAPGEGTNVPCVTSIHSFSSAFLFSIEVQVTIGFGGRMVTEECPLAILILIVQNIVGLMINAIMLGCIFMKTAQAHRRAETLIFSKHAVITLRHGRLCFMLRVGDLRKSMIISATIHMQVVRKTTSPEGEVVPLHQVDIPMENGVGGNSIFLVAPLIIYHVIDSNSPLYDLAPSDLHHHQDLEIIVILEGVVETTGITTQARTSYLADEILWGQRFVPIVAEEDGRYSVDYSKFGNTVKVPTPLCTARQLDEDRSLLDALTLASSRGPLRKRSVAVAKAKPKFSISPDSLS
T1 sequence (Q09429 whole entry): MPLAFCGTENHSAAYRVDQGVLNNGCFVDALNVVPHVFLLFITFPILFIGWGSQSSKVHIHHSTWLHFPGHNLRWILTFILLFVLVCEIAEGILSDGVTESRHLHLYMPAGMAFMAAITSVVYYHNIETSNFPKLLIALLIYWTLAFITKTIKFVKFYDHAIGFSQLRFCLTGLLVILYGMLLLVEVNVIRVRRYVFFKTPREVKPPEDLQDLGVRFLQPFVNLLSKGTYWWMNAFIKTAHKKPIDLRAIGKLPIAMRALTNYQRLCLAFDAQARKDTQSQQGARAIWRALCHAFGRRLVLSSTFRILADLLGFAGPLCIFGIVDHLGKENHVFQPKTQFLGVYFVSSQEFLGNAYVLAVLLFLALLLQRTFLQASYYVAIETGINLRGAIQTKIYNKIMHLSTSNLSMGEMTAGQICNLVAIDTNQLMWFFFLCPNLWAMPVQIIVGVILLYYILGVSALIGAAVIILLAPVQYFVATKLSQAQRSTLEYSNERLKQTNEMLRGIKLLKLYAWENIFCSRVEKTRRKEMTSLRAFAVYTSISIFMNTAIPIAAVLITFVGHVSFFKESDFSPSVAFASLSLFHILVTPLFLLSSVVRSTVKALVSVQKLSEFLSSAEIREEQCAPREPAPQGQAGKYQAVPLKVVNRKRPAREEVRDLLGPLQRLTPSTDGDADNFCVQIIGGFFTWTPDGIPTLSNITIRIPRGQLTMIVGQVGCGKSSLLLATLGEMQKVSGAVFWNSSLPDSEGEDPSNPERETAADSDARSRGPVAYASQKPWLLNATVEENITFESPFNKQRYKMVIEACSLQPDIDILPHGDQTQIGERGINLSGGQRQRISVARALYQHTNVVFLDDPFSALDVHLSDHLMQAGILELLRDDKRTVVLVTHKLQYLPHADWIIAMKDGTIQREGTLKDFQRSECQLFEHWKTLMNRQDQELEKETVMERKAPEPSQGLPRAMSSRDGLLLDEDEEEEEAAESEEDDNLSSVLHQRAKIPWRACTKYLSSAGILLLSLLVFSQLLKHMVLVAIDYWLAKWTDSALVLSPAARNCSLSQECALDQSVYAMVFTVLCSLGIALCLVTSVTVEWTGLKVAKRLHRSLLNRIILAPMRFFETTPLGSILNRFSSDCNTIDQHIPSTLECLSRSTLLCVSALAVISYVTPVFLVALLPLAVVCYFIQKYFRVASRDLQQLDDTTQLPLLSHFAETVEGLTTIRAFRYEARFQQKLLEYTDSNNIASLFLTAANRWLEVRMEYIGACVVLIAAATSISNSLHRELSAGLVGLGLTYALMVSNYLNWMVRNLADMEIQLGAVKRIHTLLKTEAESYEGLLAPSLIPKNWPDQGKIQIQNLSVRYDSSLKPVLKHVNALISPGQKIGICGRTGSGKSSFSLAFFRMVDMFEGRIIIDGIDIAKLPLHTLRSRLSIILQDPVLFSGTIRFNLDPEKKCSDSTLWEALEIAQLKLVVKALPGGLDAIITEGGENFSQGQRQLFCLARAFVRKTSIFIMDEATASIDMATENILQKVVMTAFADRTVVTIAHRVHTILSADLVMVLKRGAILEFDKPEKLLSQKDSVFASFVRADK

Chain of KATP channel (Kir 6.2 and SUR 1) (Q14654 whole entry): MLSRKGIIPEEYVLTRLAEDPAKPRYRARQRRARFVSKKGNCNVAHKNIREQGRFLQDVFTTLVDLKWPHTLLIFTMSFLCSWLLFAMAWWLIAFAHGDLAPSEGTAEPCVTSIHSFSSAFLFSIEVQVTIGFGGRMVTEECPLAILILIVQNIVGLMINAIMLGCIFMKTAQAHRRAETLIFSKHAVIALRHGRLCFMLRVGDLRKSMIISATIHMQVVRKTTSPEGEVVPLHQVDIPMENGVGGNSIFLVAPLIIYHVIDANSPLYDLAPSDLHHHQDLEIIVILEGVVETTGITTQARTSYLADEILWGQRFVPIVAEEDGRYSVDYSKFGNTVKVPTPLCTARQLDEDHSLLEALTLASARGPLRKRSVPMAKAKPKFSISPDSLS
Chain of KATP channel (Kir 6.2 and SUR 1) (Q09428 whole entry): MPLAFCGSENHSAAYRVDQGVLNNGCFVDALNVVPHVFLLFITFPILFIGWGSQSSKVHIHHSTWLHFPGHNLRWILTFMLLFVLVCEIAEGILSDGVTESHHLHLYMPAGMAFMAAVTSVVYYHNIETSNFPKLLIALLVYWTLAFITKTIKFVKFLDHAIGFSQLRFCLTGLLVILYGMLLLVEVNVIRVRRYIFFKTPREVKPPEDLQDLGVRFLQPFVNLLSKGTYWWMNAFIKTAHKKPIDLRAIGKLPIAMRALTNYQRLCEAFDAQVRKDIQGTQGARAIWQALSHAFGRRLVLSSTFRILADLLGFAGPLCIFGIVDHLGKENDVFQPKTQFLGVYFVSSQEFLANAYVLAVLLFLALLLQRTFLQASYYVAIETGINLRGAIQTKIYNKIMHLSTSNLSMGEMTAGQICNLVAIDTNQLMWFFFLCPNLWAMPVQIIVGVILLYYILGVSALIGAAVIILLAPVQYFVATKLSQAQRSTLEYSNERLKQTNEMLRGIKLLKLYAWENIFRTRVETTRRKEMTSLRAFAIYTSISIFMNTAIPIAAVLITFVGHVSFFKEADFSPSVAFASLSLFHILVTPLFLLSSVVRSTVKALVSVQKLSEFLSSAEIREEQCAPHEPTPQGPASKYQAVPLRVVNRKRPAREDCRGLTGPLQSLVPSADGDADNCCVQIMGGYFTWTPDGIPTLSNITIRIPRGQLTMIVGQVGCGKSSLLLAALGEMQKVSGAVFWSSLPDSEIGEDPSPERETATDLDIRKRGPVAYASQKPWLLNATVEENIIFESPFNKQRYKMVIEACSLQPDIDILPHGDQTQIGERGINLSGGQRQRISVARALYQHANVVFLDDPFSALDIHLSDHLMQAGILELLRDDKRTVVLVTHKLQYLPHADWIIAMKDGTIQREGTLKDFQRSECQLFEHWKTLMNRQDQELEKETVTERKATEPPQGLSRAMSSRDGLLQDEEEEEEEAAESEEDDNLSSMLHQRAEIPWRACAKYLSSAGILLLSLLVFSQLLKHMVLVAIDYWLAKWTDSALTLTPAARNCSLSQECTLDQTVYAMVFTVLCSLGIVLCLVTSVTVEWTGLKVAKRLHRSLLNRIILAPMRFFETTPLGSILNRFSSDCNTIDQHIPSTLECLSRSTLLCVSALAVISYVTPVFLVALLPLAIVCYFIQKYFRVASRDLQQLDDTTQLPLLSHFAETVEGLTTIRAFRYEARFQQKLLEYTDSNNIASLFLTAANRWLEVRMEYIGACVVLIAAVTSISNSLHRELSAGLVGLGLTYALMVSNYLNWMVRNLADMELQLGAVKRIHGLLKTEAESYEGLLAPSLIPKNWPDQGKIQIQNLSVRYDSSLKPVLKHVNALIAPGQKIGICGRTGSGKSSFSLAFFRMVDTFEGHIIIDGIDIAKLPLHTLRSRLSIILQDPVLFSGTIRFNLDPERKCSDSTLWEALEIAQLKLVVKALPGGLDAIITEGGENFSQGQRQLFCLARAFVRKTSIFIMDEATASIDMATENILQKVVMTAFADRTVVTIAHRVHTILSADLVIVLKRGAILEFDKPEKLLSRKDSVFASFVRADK

Row | amplitude of the azide-induced KATP channel current [3] | KATP current in INS-R9 cells, combination with MLC901 [4] | SMILES | effect on MLC901-induced hyperpolarization [1] | effect on the protection induced by MLC901 against OGD damage [2]
1 | – | – | COc1ccc(Cl)cc1C(=O)NCCc1ccc(S(=O)(=O)NC(=O)NC2CCCCC2)cc1 [glibenclamide] | antagonized | inhibited the protection induced by MLC901
2 | amplified | additive effect | CC(N=C(NC#N)Nc1ccncc1)C(C)(C)C (stereo not shown) [pinacidil, N-cyano-N′-pyridin-4-yl-N″-(1,2,2-trimethylpropyl)guanidine] | – | –

From patent US20130287870A1, “NOVEL USES FOR TRADITIONAL CHINESE MEDICINE” (priority 2012, published 2013)
